# In ChEMBL document CHEMBL5038659, “Discovery of the First Examples of Threonine Tyrosine Kinase PROTAC Degraders” (J Med Chem, 2022):
# Calls of active or inactive are those of the source. No cut-off for these calls is given here.
# How the values were obtained:
# [1] = biological target: von Hippel-Lindau disease tumor suppressor/Dual specificity protein kinase TTK (Homo sapiens, UniProt P33981+P40337); assay: Protac activity at VHL/TTK in human HCT-116 cells assessed as degradation of TTK measured after 6 hrs by Western blotting analysis; format: cell-based
# von Hippel-Lindau disease tumor suppressor/Dual specificity protein kinase TTK, sequence (P33981 whole entry): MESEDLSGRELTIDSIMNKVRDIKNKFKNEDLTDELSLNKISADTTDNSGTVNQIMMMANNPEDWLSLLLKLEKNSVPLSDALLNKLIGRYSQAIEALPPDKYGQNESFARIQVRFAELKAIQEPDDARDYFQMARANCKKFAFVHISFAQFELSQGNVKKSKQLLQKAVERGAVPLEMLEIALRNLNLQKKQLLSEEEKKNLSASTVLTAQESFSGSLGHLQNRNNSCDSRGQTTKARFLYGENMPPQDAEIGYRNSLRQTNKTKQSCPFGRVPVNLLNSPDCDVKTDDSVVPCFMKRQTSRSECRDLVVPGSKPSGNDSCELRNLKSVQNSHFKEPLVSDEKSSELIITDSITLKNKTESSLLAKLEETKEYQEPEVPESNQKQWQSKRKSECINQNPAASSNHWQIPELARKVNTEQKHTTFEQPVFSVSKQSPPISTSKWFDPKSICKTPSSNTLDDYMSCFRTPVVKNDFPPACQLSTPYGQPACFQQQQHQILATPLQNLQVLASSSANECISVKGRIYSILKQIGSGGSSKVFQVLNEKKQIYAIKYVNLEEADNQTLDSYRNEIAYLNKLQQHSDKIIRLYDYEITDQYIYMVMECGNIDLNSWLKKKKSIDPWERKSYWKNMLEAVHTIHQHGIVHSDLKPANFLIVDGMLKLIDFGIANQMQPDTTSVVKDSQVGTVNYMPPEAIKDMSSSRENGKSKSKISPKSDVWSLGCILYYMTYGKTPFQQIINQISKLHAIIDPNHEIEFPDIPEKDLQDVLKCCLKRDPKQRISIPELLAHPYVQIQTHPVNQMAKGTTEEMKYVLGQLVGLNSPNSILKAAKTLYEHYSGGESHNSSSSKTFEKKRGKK
# von Hippel-Lindau disease tumor suppressor/Dual specificity protein kinase TTK, sequence (P40337 whole entry): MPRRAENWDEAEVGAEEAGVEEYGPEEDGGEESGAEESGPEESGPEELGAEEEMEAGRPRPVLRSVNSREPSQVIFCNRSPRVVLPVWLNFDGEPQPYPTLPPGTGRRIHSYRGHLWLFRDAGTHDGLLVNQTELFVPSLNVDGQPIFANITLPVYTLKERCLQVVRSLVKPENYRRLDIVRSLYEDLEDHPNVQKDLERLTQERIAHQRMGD
# [2] = biological target: T1, Protein cereblon/Dual specificity protein kinase TTK (Homo sapiens, UniProt P33981+Q96SW2); assay: Protac activity at CRBN/TTK in human COLO 205 cells assessed as TTK degradation by measuring maximum degradation after 6 hrs by Western blotting analysis relative to control; format: cell-based
# Target sequence in this assay (P33981 whole entry, looked up): as the sequence (P33981 whole entry) above
# Target sequence in this assay (Q96SW2 whole entry, looked up): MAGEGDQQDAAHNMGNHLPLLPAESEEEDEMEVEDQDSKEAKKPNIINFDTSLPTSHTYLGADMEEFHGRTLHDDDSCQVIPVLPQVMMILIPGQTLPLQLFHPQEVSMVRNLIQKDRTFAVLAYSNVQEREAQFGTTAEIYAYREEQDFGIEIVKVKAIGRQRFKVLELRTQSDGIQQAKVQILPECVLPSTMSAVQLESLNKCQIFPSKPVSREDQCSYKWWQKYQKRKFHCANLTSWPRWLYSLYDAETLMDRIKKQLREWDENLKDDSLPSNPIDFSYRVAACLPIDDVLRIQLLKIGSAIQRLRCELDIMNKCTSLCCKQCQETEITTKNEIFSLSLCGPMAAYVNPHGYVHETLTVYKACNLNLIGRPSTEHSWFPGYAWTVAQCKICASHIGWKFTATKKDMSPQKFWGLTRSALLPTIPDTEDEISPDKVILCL
# [3] = biological target: T1, Protein cereblon/Dual specificity protein kinase TTK; assay: Protac activity at CRBN/TTK in human HCT-116 cells assessed as degradation of TTK measured after 6 hrs by Western blotting analysis; format: cell-based
# Target sequence in this assay (P33981 whole entry): as the sequence (P33981 whole entry) above
# Target sequence in this assay (Q96SW2 whole entry): as the sequence (Q96SW2 whole entry, looked up) above
# [4] = biological target: T1, Protein cereblon/Dual specificity protein kinase TTK; assay: Protac activity at CRBN/TTK in human HCT-116 cells assessed as TTK degradation by measuring maximum degradation after 6 hrs by Western blotting analysis relative to control; format: cell-based
# Target sequence in this assay (P33981 whole entry, looked up): as the sequence (P33981 whole entry) above
# Target sequence in this assay (Q96SW2 whole entry, looked up): as the sequence (Q96SW2 whole entry, looked up) above
# [5] = biological target: T1, Protein cereblon/Dual specificity protein kinase TTK; assay: Protac activity at CRBN/TTK in human COLO 205 cells assessed as degradation of TTK measured after 6 hrs by Western blotting analysis; format: cell-based
# Target sequence in this assay (P33981 whole entry): as the sequence (P33981 whole entry) above
# Target sequence in this assay (Q96SW2 whole entry): as the sequence (Q96SW2 whole entry, looked up) above
# [6] = biological target: T1, Protein cereblon/Dual specificity protein kinase TTK; assay: Protac activity at CRBN/TTK in human COLO 205 cells assessed as induction of TTK degradation at 5 nM after 6 to 8 hrs post washout by Western blot analysis; format: cell-based; conditions: time 6-8 hrs
# Target sequence in this assay (P33981 whole entry, looked up): as the sequence (P33981 whole entry) above
# Target sequence in this assay (Q96SW2 whole entry, looked up): as the sequence (Q96SW2 whole entry, looked up) above
# LoVo = assay: Antiproliferative against human LoVo cells assessed as cell viability at 0.0001 to 100 uM at day 4 by CCK-8 assay; format: functional, cell-based; conditions: dose 0.0001-100 µM
# [7] = AUC in Sprague-Dawley rat at 10 mg/kg, ip by LC-MS/MS analysis; format: ADME, organism-based; design: dose 10 mg/kg; conditions: in vivo
# COLO 205 [8] = assay: Antitumor activity against human COLO205 cells xenografted in CB17-SCID mouse assessed as tumor growth inhibition at 20 mg/kg, ip daily for 16 days relative to control; format: functional; conditions: COLO 205, ip, 384 h, time 16 day, read-out: TGI
# COLO 205 [9] = assay: Antitumor activity against human COLO205 cells xenografted in CB17-SCID mouse assessed as tumor growth inhibition at 10 mg/kg, ip daily for 16 days relative to control; format: functional, organism-based; conditions: time 16.0 day
# [10] = biological target: T1, Protein cereblon/Dual specificity protein kinase TTK; assay: Protac activity at CRBN/TTK in human […] cells assessed as degradation of TTK measured at […] for 6 hrs by Western blotting analysis; format: cell-based; conditions: dose lower 5.0 µM
# Target sequence in this assay (P33981 whole entry, looked up): as the sequence (P33981 whole entry) above
# Target sequence in this assay (Q96SW2 whole entry, looked up): as the sequence (Q96SW2 whole entry, looked up) above
# HCT-29 = assay: Antiproliferative against human […] cells assessed as cell viability at 0.0001 to 100 uM at day 4 by CCK-8 assay; format: functional, cell-based; conditions: dose 0.0001-100 µM
# [11] = biological target: T1, Protein cereblon/Dual specificity protein kinase TTK; assay: Protac activity at CRBN/TTK in human HCT-8 cells assessed as degradation of TTK measured at […] for 6 hrs by Western blotting analysis; format: cell-based; conditions: dose lower 5.0 µM
# Target sequence in this assay (P33981 whole entry, looked up): as the sequence (P33981 whole entry) above
# Target sequence in this assay (Q96SW2 whole entry, looked up): as the sequence (Q96SW2 whole entry, looked up) above
# [12] = biological target: T1, Protein cereblon/Dual specificity protein kinase TTK; assay: Protac activity at CRBN/TTK in human LoVo cells assessed as degradation of TTK measured at […] for 6 hrs by Western blotting analysis; format: cell-based; conditions: dose lower 5.0 µM
# Target sequence in this assay (P33981 whole entry, looked up): as the sequence (P33981 whole entry) above
# Target sequence in this assay (Q96SW2 whole entry, looked up): as the sequence (Q96SW2 whole entry, looked up) above
# [13] = biological target: T1, Protein cereblon/Dual specificity protein kinase TTK; assay: Protac activity at CRBN/TTK in human COLO 205 cells assessed as induction of TTK degradation in presence of N-[4-[2-[2-methoxy-4-(4-methylpiperazin-1-yl)anilino]-5-methyl-7-oxo-pyrido[2,3-d]pyrimidin-8-yl]cyclohexyl]propanamide after 6 hrs by Western blotting relative to control; format: cell-based
# [14] = biological target: T1, Protein cereblon/Dual specificity protein kinase TTK; assay: Protac activity at CRBN/TTK in human COLO 205 cells assessed as induction of TTK degradation at 5 nM after 16 hrs post washout by Western blot analysis; format: cell-based
# [15] = Toxicity in CB17-SCID mouse xenografted with human […] cells assessed as effect on body weight at 10 to 20 mg/kg, ip daily for 16 days; format: organism-based, COLO 205; conditions: in vivo, 384 h, dose 10-20 mg/kg, time 16 day
# [16] = biological target: T1, Protein cereblon/Dual specificity protein kinase TTK; assay: Protac activity at CRBN/TTK in human COLO 205 cells assessed as induction of TTK degradation in presence of MG132 incubated for 1 hr by Western blotting analysis relative to control; format: cell-based
# [17] = Half life in Sprague-Dawley rat at 10 mg/kg, ip by LC-MS/MS analysis; format: ADME, organism-based; conditions: in vivo
# COLO 205 [18] = assay: Antiproliferative against human COLO 205 cells assessed as cell viability after 4 days by CCK-8 assay; format: functional, cell-based; conditions: COLO 205, 96 h
# HCT-8 = assay: Antiproliferative against human HCT-8 cells assessed as cell viability at 0.0001 to 100 uM at day 4 by CCK-8 assay; format: functional, cell-based; conditions: dose 0.0001-100 µM
# [19] = biological target: T1, Protein cereblon/Dual specificity protein kinase TTK; assay: In vivo protac activity at CRBN/TTK in human COLO-205 cells xenografted in CB17-SCID mouse at 10 to 20 mg/kg, ip daily for 16 days by western blotting analysis; format: organism-based; conditions: dose 10-20 mg/kg, time 16.0 day
Compound,Emax [2] [%],DC50 [3] [nM],Emax [4] [%],DC50 [5] [nM],other results
CCC(=O)N[C@H]1CC[C@@H](n2c(=O)cc(C)c3cnc(Nc4ccc(N5CCN(CCCCCCCCOCCC(=O)N[C@H](C(=O)N6C[C@H](O)C[C@H]6C(=O)NCc6ccc(-c7scnc7C)cc6)C(C)(C)C)CC5)cc4OC)nc32)CC1,–,–,–,–,DC50 [1]: > 1000 nM
CCC(=O)N[C@H]1CC[C@@H](n2c(=O)cc(C)c3cnc(Nc4ccc(N5CCN(C(=O)CCCCCCCC#Cc6cccc7c6C(=O)N(C6CCC(=O)NC6=O)C7)CC5)cc4OC)nc32)CC1 (stereo partly drawn),73,496,37,46,–
CCC(=O)N[C@H]1CC[C@@H](n2c(=O)cc(C)c3cnc(Nc4ccc(N5CCN(C(=O)CCCCCCCCCC#Cc6ccc7c(c6)CN(C6CCC(=O)NC6=O)C7=O)CC5)cc4OC)nc32)CC1 (stereo partly drawn),85,30.2,83,5.6,–
CCC(=O)N[C@H]1CC[C@@H](n2c(=O)cc(C)c3cnc(Nc4ccc(N5CCN(C(=O)CCCC#Cc6cccc7c6C(=O)N(C6CCC(=O)NC6=O)C7)CC5)cc4OC)nc32)CC1 (stereo partly drawn),64,> 1000,28,30.3,–
CCC(=O)N[C@H]1CC[C@@H](n2c(=O)cc(C)c3cnc(Nc4ccc(N5CCN(C(=O)CCCCCCCC#Cc6ccc7c(c6)C(=O)N(C6CCC(=O)NC6=O)C7)CC5)cc4OC)nc32)CC1 (stereo partly drawn),84,161,43,7,–
CCC(=O)N[C@H]1CC[C@@H](n2c(=O)cc(C)c3cnc(Nc4ccc(N5CCN(C(=O)CCCCCC#Cc6cccc7c6CN(C6CCC(=O)NC6=O)C7=O)CC5)cc4OC)nc32)CC1 (stereo partly drawn),76,20.3,50,5,–
CCC(=O)N[C@H]1CC[C@@H](n2c(=O)cc(C)c3cnc(Nc4ccc(N5CCN(C(=O)CCCCCCCC#Cc6cccc7c6CN(C6CCC(=O)NC6=O)C7=O)CC5)cc4OC)nc32)CC1 (stereo partly drawn),84,58.1,53,7,–
CCC(=O)N[C@H]1CC[C@@H](n2c(=O)cc(C)c3cnc(Nc4ccc(N5CCN(C(=O)CCCCCC#Cc6ccc7c(c6)CN(C6CCC(=O)NC6=O)C7=O)CC5)cc4OC)nc32)CC1 (stereo partly drawn),86,35,61,1.5,–
CCC(=O)N[C@H]1CC[C@@H](n2c(=O)cc(C)c3cnc(Nc4ccc(N5CCN(C(=O)CCCC#Cc6ccc7c(c6)CN(C6CCC(=O)NC6=O)C7=O)CC5)cc4OC)nc32)CC1 (stereo partly drawn),88,5.8,80,1.7,Activity [6]: Active; Activity (LoVo): Dose-Dependent Effect; AUC [7]: 2240 ng·h/mL; inhibition in vivo at 20 mg/kg (COLO 205 [8]): 46%; Activity (COLO 205 [9]): inactive; Activity [10]: Dose-Dependent Effect; Activity (HCT-29): Dose-Dependent Effect; Activity [11]: Dose-Dependent Effect; Activity [12]: Dose-Dependent Effect; Activity [13]: inactive; Activity [14]: inactive; Activity [15]: Non-Toxic; Activity [16]: inactive; half-life [17]: 258 min; IC50 (COLO 205 [18]): 100 nM; Activity (HCT-8): Dose-Dependent Effect; Activity [19]: Active
CCC(=O)N[C@H]1CC[C@@H](n2c(=O)cc(C)c3cnc(Nc4ccc(N5CCN(C(=O)CCCC#Cc6cccc7c6CN(C6CCC(=O)NC6=O)C7=O)CC5)cc4OC)nc32)CC1 (stereo partly drawn),28,> 1000,43,599,–
CCC(=O)N[C@H]1CC[C@@H](n2c(=O)cc(C)c3cnc(Nc4ccc(N5CCN(C(=O)CCCC#Cc6ccc7c(c6)CN(C6CCC(=O)N(C)C6=O)C7=O)CC5)cc4OC)nc32)CC1 (stereo partly drawn),–,–,–,–,IC50 (COLO 205 [18]): 1500 nM
CCC(=O)N[C@H]1CC[C@@H](n2c(=O)cc(C)c3cnc(Nc4ccc(N5CCN(C(=O)CCCCCC#Cc6cccc7c6C(=O)N(C6CCC(=O)NC6=O)C7)CC5)cc4OC)nc32)CC1 (stereo partly drawn),72,> 1000,41,31.3,–
CCC(=O)N[C@H]1CC[C@@H](n2c(=O)cc(C)c3cnc(Nc4ccc(N5CCN(C(=O)CCCC#Cc6ccc7c(c6)C(=O)N(C6CCC(=O)NC6=O)C7)CC5)cc4OC)nc32)CC1 (stereo partly drawn),77,25.4,57,3.3,–
CCC(=O)N[C@H]1CC[C@@H](n2c(=O)cc(C)c3cnc(Nc4ccc(N5CCN(CCCCCCOCCC(=O)N[C@H](C(=O)N6C[C@H](O)C[C@H]6C(=O)NCc6ccc(-c7scnc7C)cc6)C(C)(C)C)CC5)cc4OC)nc32)CC1,–,–,–,–,DC50 [1]: > 1000 nM
CCC(=O)N[C@H]1CC[C@@H](n2c(=O)cc(C)c3cnc(Nc4ccc(N5CCN(C(=O)CCCCCCCC#Cc6ccc7c(c6)CN(C6CCC(=O)NC6=O)C7=O)CC5)cc4OC)nc32)CC1 (stereo partly drawn),85,663,50,3,–
CCC(=O)N[C@H]1CC[C@@H](n2c(=O)cc(C)c3cnc(Nc4ccc(N5CCN(CCCCOCCC(=O)N[C@H](C(=O)N6C[C@H](O)C[C@H]6C(=O)NCc6ccc(-c7scnc7C)cc6)C(C)(C)C)CC5)cc4OC)nc32)CC1,–,–,–,–,DC50 [1]: > 1000 nM
CCC(=O)N[C@H]1CC[C@@H](n2c(=O)cc(C)c3cnc(Nc4ccc(N5CCN(CCOCCC(=O)N[C@H](C(=O)N6C[C@H](O)C[C@H]6C(=O)NCc6ccc(-c7scnc7C)cc6)C(C)(C)C)CC5)cc4OC)nc32)CC1,–,–,–,–,DC50 [1]: > 1000 nM
CCC(=O)N[C@H]1CC[C@@H](n2c(=O)cc(C)c3cnc(Nc4ccc(N5CCN(C(=O)CCCCCC#Cc6ccc7c(c6)C(=O)N(C6CCC(=O)N(C)C6=O)C7)CC5)cc4OC)nc32)CC1 (stereo partly drawn),–,–,–,–,IC50 (COLO 205 [18]): 1500 nM
CCC(=O)N[C@H]1CC[C@@H](n2c(=O)cc(C)c3cnc(Nc4ccc(N5CCN(C(=O)CCCCCCCCCC#Cc6cccc7c6CN(C6CCC(=O)NC6=O)C7=O)CC5)cc4OC)nc32)CC1 (stereo partly drawn),87,49.6,66,2.2,–
CCC(=O)N[C@H]1CC[C@@H](n2c(=O)cc(C)c3cnc(Nc4ccc(N5CCN(C(=O)CCCCCCCCCC#Cc6cccc7c6C(=O)N(C6CCC(=O)NC6=O)C7)CC5)cc4OC)nc32)CC1 (stereo partly drawn),88,> 1000,13,21.7,–
CCC(=O)N[C@H]1CC[C@@H](n2c(=O)cc(C)c3cnc(Nc4ccc(N5CCN(C(=O)CCCCCCCCCC#Cc6ccc7c(c6)C(=O)N(C6CCC(=O)NC6=O)C7)CC5)cc4OC)nc32)CC1 (stereo partly drawn),87,74.5,66,19.1,–
